We go through 8 compounds from ChEMBL document CHEMBL1201862, “PubChem BioAssay data set” (2004).

Activity calls are given as the source filed them.

As usually defined, the EC50 is the concentration needed to bring the measured effect to its halfway point. As usually defined, the IC50 is the concentration that gives 50% inhibition. As a reminder, the AC50 is the concentration giving half of the maximal activity seen.

Experiment [1] addresses T1, Sphingosine 1-phosphate receptor 4 (Homo sapiens, UniProt O95977).
T1 sequence (O95977 whole entry): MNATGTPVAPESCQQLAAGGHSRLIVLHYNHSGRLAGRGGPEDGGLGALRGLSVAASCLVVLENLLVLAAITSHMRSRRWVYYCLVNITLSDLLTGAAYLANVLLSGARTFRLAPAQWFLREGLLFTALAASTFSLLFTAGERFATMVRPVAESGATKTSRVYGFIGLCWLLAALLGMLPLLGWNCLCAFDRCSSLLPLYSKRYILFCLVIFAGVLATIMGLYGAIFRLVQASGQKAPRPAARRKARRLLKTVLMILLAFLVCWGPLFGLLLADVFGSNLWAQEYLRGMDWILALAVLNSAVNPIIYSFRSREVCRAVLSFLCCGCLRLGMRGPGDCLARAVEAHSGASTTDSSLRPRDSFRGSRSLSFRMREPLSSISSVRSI
In words: Late-stage fluorescence dose response cell-based assay to identify agonists of the Sphingosine 1-Phosphate Receptor 4 (S1P4): purchased compounds EC50. [Related pubchem assays (depositor defined):AID1509, AID1523, AID1563, AID1686, AID1701, AID1801]. Format: functional.

For experiment [2], the target named is T2, Protein phosphatase methylesterase 1 (Homo sapiens, UniProt Q9Y570). Briefly: Late stage results from the probe development effort to identify inhibitors of the protein methylesterase PME-1: Gel-based Activity-Based Protein Profiling (ABPP) IC50: Purified enzyme. Format: functional.
T2 sequence (Q9Y570 whole entry): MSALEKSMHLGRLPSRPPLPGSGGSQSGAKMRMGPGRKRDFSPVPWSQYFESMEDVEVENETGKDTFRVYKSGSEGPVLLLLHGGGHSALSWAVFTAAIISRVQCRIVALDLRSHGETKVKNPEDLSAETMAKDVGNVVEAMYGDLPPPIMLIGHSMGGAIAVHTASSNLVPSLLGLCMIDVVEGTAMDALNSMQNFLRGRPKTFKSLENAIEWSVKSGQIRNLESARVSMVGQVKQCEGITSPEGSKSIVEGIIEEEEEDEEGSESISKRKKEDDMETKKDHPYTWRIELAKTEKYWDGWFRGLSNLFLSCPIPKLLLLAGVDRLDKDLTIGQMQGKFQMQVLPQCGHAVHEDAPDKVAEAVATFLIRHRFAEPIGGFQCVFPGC
The target in experiment [3] is T2, Protein phosphatase methylesterase 1. Briefly: PME-1 inhibitor potency by in-gel ABPP, dose response, selectivity assay for PME-1 inhibitor project, cell lysate, mouse brain cytosol, FP-rhodamine, panel member PME-1 Assay Panel member description: Inhibition of endogenously expressed PME-1 (AID 2366).
Experiment [4] deals with T3, Mannose-6-phosphate isomerase (Homo sapiens, UniProt P34949).
T3 sequence (P34949 whole entry): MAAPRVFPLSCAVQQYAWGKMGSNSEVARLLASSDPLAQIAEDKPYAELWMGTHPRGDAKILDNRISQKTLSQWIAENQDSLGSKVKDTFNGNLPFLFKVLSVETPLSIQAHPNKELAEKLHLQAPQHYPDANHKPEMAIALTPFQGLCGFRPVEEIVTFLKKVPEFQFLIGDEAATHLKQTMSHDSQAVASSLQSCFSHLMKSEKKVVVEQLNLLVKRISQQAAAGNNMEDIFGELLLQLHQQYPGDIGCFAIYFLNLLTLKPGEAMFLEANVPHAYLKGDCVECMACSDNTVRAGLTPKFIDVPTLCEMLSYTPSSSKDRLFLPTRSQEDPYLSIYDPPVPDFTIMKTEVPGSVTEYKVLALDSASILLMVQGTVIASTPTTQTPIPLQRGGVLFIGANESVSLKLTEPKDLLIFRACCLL
In words: Confirmation of compounds inhibiting phosphomannose isomerase (PMI) via a fluorescence intensity assay using a high concentration of mannose 6-phosphate. [Related pubchem assays (depositor defined):AID1209, AID1220, AID1545, AID1553, AID1620].

The target in experiment [5] is T3, Mannose-6-phosphate isomerase. Briefly: PMI enzyme inhibitors, confirmation, biochemical, fluorescence intensity (AID 1535).
The next experiment deals with T4, Phosphomannomutase 2 (Homo sapiens, UniProt O15305).
T4 sequence (O15305 whole entry): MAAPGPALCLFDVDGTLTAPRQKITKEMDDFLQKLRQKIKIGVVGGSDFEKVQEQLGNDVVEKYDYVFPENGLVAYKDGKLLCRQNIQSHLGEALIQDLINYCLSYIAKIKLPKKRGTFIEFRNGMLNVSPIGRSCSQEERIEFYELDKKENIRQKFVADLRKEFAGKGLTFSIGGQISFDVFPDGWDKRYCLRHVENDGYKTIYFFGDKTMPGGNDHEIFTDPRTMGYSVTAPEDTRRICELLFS
Briefly: Counter screen SAR assay for PMM2 inhibitors via a fluorescence intensity assay. [Related pubchem assays (depositor defined):AID1545, AID1574].

In experiment [6] the target is Phosphoethanolamine/phosphocholine phosphatase (Homo sapiens, UniProt Q8TCT1). Briefly: SAR assay for compounds that inhibit PHOSPHO1. [Related pubchem assays (depositor defined):AID1545, AID1565, AID1574].
Chain of Phosphoethanolamine/phosphocholine phosphatase (Q8TCT1 whole entry): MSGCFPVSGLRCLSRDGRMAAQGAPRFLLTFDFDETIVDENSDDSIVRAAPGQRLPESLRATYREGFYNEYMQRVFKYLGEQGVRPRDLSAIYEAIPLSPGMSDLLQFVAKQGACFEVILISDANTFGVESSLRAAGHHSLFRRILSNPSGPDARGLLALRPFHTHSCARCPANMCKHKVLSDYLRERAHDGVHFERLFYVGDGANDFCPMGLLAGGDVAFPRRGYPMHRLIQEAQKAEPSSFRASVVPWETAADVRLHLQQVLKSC
Experiment [7] deals with T5, Alkaline phosphatase, tissue-nonspecific isozyme (Homo sapiens, UniProt P05186).
T5 sequence (P05186 whole entry): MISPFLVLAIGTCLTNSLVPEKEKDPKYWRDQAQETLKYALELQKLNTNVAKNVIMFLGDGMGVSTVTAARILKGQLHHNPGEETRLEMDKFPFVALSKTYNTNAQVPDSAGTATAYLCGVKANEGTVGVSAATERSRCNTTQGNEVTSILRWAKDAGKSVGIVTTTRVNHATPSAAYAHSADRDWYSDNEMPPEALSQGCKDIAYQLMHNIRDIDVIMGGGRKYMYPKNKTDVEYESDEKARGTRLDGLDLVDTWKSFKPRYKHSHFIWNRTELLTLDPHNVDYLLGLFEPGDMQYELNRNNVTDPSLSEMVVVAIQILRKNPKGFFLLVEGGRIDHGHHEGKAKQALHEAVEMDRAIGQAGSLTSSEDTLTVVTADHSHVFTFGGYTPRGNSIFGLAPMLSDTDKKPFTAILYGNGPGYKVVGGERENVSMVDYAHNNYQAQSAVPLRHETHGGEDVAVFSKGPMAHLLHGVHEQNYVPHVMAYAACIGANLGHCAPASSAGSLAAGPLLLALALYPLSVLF
Briefly: human TNAP enzyme inhibitors, SAR follow-up, biochemical, luminescent, dose response (AID 1056).

The target in experiment [8] is T6, Cannabinoid receptor 2 (Homo sapiens, UniProt P34972). In words: SAR analysis of antagonists of the Cannabinoid Receptor 2 using an Image-Based Assay - Set 2. [Related pubchem assays (depositor defined):AID1961, AID1965]. The format is functional.
T6 sequence (P34972 whole entry): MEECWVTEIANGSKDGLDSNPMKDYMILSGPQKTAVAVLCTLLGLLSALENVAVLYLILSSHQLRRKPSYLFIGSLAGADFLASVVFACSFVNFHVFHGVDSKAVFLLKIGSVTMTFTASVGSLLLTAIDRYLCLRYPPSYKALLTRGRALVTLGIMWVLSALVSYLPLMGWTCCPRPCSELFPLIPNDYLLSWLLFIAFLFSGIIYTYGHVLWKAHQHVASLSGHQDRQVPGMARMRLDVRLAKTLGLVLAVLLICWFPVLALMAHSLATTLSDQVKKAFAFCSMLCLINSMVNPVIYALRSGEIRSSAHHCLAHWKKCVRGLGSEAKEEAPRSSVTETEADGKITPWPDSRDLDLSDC
Experiment [9] has as its target G-protein coupled receptor 55 (Homo sapiens, UniProt Q9Y2T6). In words: SAR analysis of selective Agonists of GPR55 using an Image-Based Assay - Set 2. [Related pubchem assays (depositor defined):AID1961, AID1965]. Format: functional.
Experiment [10] addresses T6, Cannabinoid receptor 2. Briefly: SAR analysis of agonists of the Cannabinoid Receptor 2 using an Image-Based Assay - Set 2. [Related pubchem assays (depositor defined):AID1961, AID1965]. Format: functional.
Experiment [11] deals with T7, G-protein coupled receptor 35 (Homo sapiens, UniProt Q9HC97). Briefly: SAR analysis of Agonists of the GPR35 Receptor using an Image-Based Assay - Set 3. [Related pubchem assays (depositor defined):AID1961, AID1965]. Format: functional.
T7 sequence (Q9HC97 whole entry): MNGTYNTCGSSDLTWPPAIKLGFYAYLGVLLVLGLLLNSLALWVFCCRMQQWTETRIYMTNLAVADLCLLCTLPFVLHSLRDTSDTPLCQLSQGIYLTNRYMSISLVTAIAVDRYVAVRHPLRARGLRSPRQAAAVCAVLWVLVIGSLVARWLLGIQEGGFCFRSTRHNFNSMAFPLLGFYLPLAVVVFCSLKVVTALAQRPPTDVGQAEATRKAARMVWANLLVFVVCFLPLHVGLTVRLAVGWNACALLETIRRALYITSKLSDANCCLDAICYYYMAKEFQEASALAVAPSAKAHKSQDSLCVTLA
Experiment [12] addresses T8, Cannabinoid receptor 1 (Homo sapiens, UniProt P21554). In words: SAR analysis of antagonists of the Cannabinoid Receptor 1 using an Image-Based Assay - Set 3. [Related pubchem assays (depositor defined):AID1961, AID1965]. The format is functional.
Experiment [13] addresses T8, Cannabinoid receptor 1. In words: SAR analysis of agonists of the Cannabinoid Receptor 1 using an Image-Based Assay - Set 3. [Related pubchem assays (depositor defined):AID1961, AID1965]. The format is functional.
In experiment [14] the target is T7, G-protein coupled receptor 35. In words: SAR analysis of Antagonists of the GPR35 Receptor using an Image-Based Assay - Set 4. [Related pubchem assays (depositor defined):[…]]. Format: functional.
The nature of experiment [15]: NIH-3T3 fibroblast cytotoxicity, dose response, cytotoxicity control, cell-based, fluorescence, Alamar Blue, secondary assay (AID 2327).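 Also: NIH-3T3 mouse fibroblasts cultured with fluconazole at 8 µg/mL.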 The format is functional.
Experiment [16] can be described thus: inhibitors of firefly luciferase expression or activity, dose response, H4 neuroglioma cells, luminescence (AID 1990). The format is functional, cell-based.
Experiment [17] deals with BJ. In words: cytotoxicity toward BJ-TERT fibroblasts, dose response, cell-based, RAS-independent, luminescence (AID 1933). The format is functional. The settings on record: Homo sapiens.
The nature of experiment [18]: Luminescence Cell-Based Dose Response HTS to Identify Inhibitors of 5'UTR Stem-Loop Driven Prion Protein mRNA Translation in H4 Neuroglioblastoma Cells. [Related pubchem assays: 1827 (Project Summary), 1813 (Primary HTS)]. The format is functional.
Experiment [19] is described as follows: inhibitors of SNCA 5'UTR-driven reporter translation, confirmation, H4 neuroglioma cells, luminescence (AID 1988). Format: functional, cell-based.
The subject of experiment [20] is BJ. Briefly: cells. The following applies: Homo sapiens. Format: functional, cell-based.
Experiment [21] can be described thus: C. albicans growth with fluconazole, confirmation, fluorescence, retest (AID 2467). The format is functional, cell-based.
Experiment [22] in a line: microbe, parasite or virus in culture. Format: functional. The following applies: Mycobacterium tuberculosis.
The test system of experiment [23] is BJ. In words: cytotoxicity toward BJ-TERT-LT-ST fibroblasts, dose response, cell-based, RAS-independent, luminescence (AID 1935).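 Also: BJ fibroblasts immortalized with TERT plus LT and ST oncogenes.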 The format is functional. The following applies: Homo sapiens.
Experiment [24] is described as follows: cytotoxicity toward DRD oncogenic fibroblasts, dose response, cell-based, non-viral oncogenic, luminescence (AID 1934). Format: functional. The following applies: Homo sapiens.
The target of experiment [25] is NACHT, LRR and PYD domains-containing protein 3 (Homo sapiens, UniProt Q96P20). Briefly: NALP3 inhibitors in yeast, dose response, luminescent (AID 488799). Format: functional.
Chain of NACHT, LRR and PYD domains-containing protein 3 (Q96P20 whole entry, the tested form may be a part): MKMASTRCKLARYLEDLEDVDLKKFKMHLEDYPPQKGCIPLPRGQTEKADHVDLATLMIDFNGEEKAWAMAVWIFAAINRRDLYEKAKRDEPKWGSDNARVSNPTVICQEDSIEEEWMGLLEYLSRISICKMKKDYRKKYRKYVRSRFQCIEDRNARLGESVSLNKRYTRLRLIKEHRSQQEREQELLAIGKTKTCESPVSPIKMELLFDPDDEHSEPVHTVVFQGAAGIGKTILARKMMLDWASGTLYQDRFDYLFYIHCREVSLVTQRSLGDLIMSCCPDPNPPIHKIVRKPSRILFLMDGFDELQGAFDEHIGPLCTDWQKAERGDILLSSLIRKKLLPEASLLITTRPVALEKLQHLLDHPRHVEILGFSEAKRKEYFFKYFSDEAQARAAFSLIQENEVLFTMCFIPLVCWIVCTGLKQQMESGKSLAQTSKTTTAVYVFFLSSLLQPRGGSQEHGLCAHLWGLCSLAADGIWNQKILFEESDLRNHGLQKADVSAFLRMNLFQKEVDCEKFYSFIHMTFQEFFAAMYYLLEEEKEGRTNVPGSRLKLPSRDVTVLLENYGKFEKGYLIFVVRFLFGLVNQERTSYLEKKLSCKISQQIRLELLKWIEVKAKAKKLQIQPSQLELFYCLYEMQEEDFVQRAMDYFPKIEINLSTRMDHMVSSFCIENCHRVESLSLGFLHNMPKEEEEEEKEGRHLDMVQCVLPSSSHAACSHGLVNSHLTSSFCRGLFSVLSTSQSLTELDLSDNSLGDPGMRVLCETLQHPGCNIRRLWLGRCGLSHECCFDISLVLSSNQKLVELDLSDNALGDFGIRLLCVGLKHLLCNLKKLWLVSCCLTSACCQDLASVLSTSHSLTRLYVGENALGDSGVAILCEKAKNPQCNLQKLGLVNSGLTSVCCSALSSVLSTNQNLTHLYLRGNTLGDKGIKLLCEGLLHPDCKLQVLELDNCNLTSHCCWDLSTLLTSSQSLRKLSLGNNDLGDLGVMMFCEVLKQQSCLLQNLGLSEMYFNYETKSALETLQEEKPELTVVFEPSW
Experiment [26] in a line: cytotoxicity in HEK-293T cells, dose response, cytotoxicity control for TCR NF-kB inhibitor project, luminescence, T-cell screen hits (AID 489026).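 Also: cells exposed to compound about 14 hours before the viability readout.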 The format is functional, cell-based.
The subject of another experiment is INS1. Briefly: beta cell apoptosis inhibitors, cytokine rescue, dose response, luminescence, retest (AID 449756).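 Also: cell death triggered by IL-1 beta plus TNF-alpha plus IFN-gamma mixture; protective hits raise ATP signal compared with cytokine alone wells.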 The following applies: Rattus norvegicus, INS1. The format is functional, cell-based.
Experiment [27] concerns the target Mitochondrial peptide methionine sulfoxide reductase (Bos taurus, UniProt P54149). Briefly: Absorbance-based biochemical high throughput dose response assay for activators of Methionine sulfoxide reductase A (MsrA). The format is functional.
Another experiment concerns J774.A1. In words: Confirmation of image-based Screening Assay for Inhibitors of Phagocytosis. [Related pubchem assays (depositor defined):AID1029, AID1643]. Format: functional, cell-based. The settings on record: Mus musculus.
In another experiment the target is Troponin, cardiac muscle (Homo sapiens, UniProt P19429+P45379+P63316). Briefly: Fluorescence-based biochemical high throughput dose response assay for activators of the calcium sensitivity of cardiac Regulated Thin Filaments (RTF). [Related pubchem assays (depositor defined):AID493008, AID493018, AID504382, AID504383]. Format: protein-complex assay.
The target of experiment [28] is DNA dC->dU-editing enzyme APOBEC-3A (Homo sapiens, UniProt P31941). Briefly: APOBEC3A DNA deaminase inhibitors, dose response, biochemical (AID 504722). The format is functional.
Chain of DNA dC->dU-editing enzyme APOBEC-3A (P31941 whole entry): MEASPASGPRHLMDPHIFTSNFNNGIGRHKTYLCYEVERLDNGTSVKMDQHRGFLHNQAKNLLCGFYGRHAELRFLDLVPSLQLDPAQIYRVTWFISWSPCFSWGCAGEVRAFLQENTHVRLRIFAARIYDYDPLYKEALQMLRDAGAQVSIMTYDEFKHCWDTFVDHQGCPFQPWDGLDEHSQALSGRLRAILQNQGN
Experiment [29] has as its target DNA dC->dU-editing enzyme APOBEC-3G (Homo sapiens, UniProt Q9HC16). Briefly: Dose Response confirmation of small molecule APOBEC3G DNA Deaminase Inhibitors via a fluorescence-based single-stranded DNA deaminase assay. [Related pubchem assays (depositor defined):AID493012, AID493028]. Format: functional.

T8 sequence (P21554 whole entry): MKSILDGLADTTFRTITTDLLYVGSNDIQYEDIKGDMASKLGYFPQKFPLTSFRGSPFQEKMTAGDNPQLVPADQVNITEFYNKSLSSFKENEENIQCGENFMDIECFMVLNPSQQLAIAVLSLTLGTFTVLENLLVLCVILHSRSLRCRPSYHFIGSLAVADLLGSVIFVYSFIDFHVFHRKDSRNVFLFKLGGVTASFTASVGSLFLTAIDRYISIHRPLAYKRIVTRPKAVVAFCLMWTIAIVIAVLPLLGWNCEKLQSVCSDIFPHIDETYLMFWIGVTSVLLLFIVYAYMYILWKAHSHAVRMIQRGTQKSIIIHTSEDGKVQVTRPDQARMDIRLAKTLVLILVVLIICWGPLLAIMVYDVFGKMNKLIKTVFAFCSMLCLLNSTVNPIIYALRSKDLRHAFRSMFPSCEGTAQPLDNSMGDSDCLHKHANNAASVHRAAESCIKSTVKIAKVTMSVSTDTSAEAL
Chain of Mitochondrial peptide methionine sulfoxide reductase (P54149 whole entry): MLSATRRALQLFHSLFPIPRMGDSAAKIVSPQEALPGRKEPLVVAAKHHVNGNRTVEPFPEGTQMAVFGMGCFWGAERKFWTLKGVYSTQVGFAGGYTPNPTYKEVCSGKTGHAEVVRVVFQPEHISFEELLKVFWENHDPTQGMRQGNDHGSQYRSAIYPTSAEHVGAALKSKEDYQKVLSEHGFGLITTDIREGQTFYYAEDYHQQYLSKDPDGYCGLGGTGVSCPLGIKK
Chain of G-protein coupled receptor 55 (Q9Y2T6 whole entry): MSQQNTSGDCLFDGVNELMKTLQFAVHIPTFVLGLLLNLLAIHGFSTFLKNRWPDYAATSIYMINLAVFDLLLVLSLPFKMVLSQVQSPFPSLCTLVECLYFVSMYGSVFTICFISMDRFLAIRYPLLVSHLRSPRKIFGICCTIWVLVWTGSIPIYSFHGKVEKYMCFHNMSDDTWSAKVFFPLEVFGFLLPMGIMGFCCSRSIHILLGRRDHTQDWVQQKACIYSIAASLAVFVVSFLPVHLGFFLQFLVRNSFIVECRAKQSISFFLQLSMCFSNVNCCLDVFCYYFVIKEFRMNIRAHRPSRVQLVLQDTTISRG
Chain of DNA dC->dU-editing enzyme APOBEC-3G (Q9HC16 whole entry): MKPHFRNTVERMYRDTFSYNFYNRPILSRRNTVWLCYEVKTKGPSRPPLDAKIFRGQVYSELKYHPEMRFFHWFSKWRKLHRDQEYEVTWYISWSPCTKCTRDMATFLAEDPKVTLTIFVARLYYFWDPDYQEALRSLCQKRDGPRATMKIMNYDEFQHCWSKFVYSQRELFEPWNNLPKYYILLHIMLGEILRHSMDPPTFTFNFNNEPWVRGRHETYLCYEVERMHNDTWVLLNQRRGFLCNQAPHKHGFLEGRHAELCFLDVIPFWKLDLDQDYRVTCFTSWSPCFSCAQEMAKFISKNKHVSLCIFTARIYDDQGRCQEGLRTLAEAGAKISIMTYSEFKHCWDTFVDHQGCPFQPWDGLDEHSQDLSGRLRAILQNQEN

Consider `CCCc1ccc(C(=O)C(C)OC(=O)c2c(C)nn(Cc3ccccc3)c2Cl)cc1` (centres undefined), for which the EC50 in [1] was > 50 µM (inactive).
As to `CS(=O)(=O)/C(C#N)=C/c1ccc([N+](=O)[O-])cc1`, the concentration for half-maximal inhibition (IC50) in experiment [2] is > 20 µM (not active); in experiment [3], > 20 µM (inactive).
As to `Cc1ccc(C)c(-n2sc3ccccc3c2=O)c1`, the IC50 in experiment [4] was 5.51 µM (active); in [5], 1.67 µM (active); on Phosphomannomutase 2 it was 17.9 µM (active); in [6], 5.04 µM (inactive); in experiment [7], > 100 µM (inactive).
Take `O=C(Nc1cc(S(=O)(=O)N2CCOCC2)ccc1Cl)c1cc2c(s1)CCCC2`: the IC50 (at Cannabinoid receptor 2 [8]; on Cannabinoid receptor 1 [12]; in experiment [14]) was > 32 µM (inactive) each time. The EC50 was 0.779 µM (active) in [9], > 32 µM (inactive) at Cannabinoid receptor 2 [10], > 32 µM (inactive) in experiment [11] and 7.87 µM (active) on Cannabinoid receptor 1 [13].
Regarding `CCN(CC)c1ccc2nc3ccccc3[n+](CC)c2c1`, the EC50 was 96.1 µM (active) in experiment [15]; 11.2 µM (active) in experiment [16]; 16.9 µM (active) with BJ [17]; 25.9 µM (active) in [18]; 9.49 µM (active) in experiment [19]; 23.6 µM (active) in the experiment on BJ [20]. Also, the EC50 in [21] was 0.686 µM (active); with BJ [23], > 150 µM (inconclusive); in experiment [24] it was 15.2 µM (active); in experiment [27] it was 19.2 µM (inactive). Besides, in [22], the CC50 is > 40 µM (active). The results for the IC50 in [25] and in experiment [26] were 14.3 µM (active) and 48.8 µM (inactive), respectively. Also, the AC50 in the experiment with INS1 was 0.602 µM (active).
As for `CCN(CC)c1ccc(NC(=O)c2cc(OC)cc(OC)c2)c(C)c1`, the IC50 in the experiment with J774.A1 is 0.13 µM (active); in experiment [26], > 80 µM (inactive).
Take `CCOc1cc(N2CCOCC2)c(OCC)cc1NC(=O)CCS(=O)(=O)c1ccc(Cl)cc1`: on Troponin, cardiac muscle, the EC50 is > 71.5 µM (inactive).
Regarding `FC(F)Oc1ccc(/C=N/n2c(S)nnc2Cc2ccc(Br)cc2)cc1`, the IC50 in experiment [28] was > 100 µM (inactive); in experiment [29], 6.93 µM (active).
